# From patent US10201588B2, “Materials and methods of treating dyslipidemia” (UNIVERSITY OF MIAMI, priority 2017, dated 2019)
# Marks after values point to notes of the source that are not given here.
# Legend:
# [1] = tested on: T1D rats; experiment: Kidney damage in T1D rats: proteinuria (albumin/creatinine ratio) and α-sma expression in kidney cortex; type: in vivo, rat; details: MIA-602 treatment vs vehicle-treated T1D
# Description: (§1) T1 Diabetes Animal Model. Wistar rats (male, 200-250 g, Envigo RMS, Inc.) were rendered diabetic with a single dose of streptozotocin (STZ, 50 mg/kg body weight, i.p.). Once rats became hyperglycemic (>350 mg/dl plasma glucose, usually 3-4 days post STZ injection), they were divided into two groups, with and without treatment with the GHRH antagonist MIA-602 ([…], s.c.) administered three times a week for 14 weeks after establishment of diabetes. Untreated animals received vehicle alone with the same regimen. Upon completion of the 14 weeks period, animals were placed in metabolic cages for 3 days for adaptation, allowing them free movement, water and food intake. […] On the third day in the metabolic cages, food and water intake was monitored for a period of 24 hours. […]
# Determination of metabolites. ApoB-48 lipoprotein was measured in plasma samples from rats and in culture medium supernatant from IEC by the use of a commercial ELISA kit (MyBioSource). The VLDL/LDL Cholesterol Assay kit (Abcam), the Total Cholesterol Assay kit (Wako) and the PicoProbe Triglyceride Quantification Assay Kit (Abcam) were used for analysis of VLDL/LDL fractions, total cholesterol and triglycerides in plasma samples. Albumin and creatinine levels in urine were analyzed by the use of Nephrat II and Creatinine Companion (Exocell) assay kits, respectively. […]
# [2] = tested on: T1D rats; experiment: Plasma metabolites, lipids, glucose regulatory hormones and chemokines in T1D rats; type: in vivo, rat
# Description: T1 Diabetes Animal Model. Wistar rats (male, 200-250 g, Envigo RMS, Inc.) were rendered diabetic with a single dose of streptozotocin (STZ, 50 mg/kg body weight, i.p.). Once rats became hyperglycemic (>350 mg/dl plasma glucose, usually 3-4 days post STZ injection), they were divided into two groups, with and without treatment with the GHRH antagonist MIA-602 ([…], s.c.) administered three times a week for 14 weeks after establishment of diabetes. Untreated animals received vehicle alone with the same regimen. Upon completion of the 14 weeks period, animals were placed in metabolic cages for 3 days for adaptation, allowing them free movement, water and food intake. During the entire experiment, rats were fed regular rat chow (Teklad Diet, Madison, Wis.) and received water ad libitum. On the third day in the metabolic cages, food and water intake was monitored for a period of 24 hours. 24-hour urine specimens were also collected, centrifuged at 400×g for 5 minutes for particulate removal, aliquoted and stored at −80° C. Animals were then euthanized in the morning around 10 am in a fed state, under deep anesthesia with isoflurane, by exsanguination, followed by removal of vital organs. Plasma was separated from heparinized blood samples, aliquoted and saved at −80° C. for further analysis. Rats were handled according to high ethical and scientific standards for laboratory animals, and our protocol was reviewed and approved by the Institutional Animal Care and Use Committee at the Medical College of Georgia at Augusta University.
# (§2) Determination of metabolites. ApoB-48 lipoprotein was measured in plasma samples from rats and in culture medium supernatant from IEC by the use of a commercial ELISA kit (MyBioSource). The VLDL/LDL Cholesterol Assay kit (Abcam), the Total Cholesterol Assay kit (Wako) and the PicoProbe Triglyceride Quantification Assay Kit (Abcam) were used for analysis of VLDL/LDL fractions, total cholesterol and triglycerides in plasma samples. Albumin and creatinine levels in urine were analyzed by the use of Nephrat II and Creatinine Companion (Exocell) assay kits, respectively. Chemokines and glucose regulatory hormones (MCP-1, insulin, amylin, GIP and glucagon) were analyzed using the MILLIPLEX MAP Rat Metabolic Hormone Magnetic Bead Panel—Metabolism Multiplex Assay (RMHMAG-84K, EMD Millipore). Levels of growth hormone (GH) were assay with Rat Growth Hormone ELISA kit (EMD Millipore). Glucose levels were measured in blood by AlphaTRAK Blood Glucose Monitoring System.
# [3] = tested on: GLP-1 receptor; experiment: Western blot of GLP-1 receptor expression in T1D rats; type: in vivo, rat; details: MIA-602 treatment vs augmented expression in T1D, FIG. 3A
# Description: (§3) T1 Diabetes Animal Model. Wistar rats (male, 200-250 g, Envigo RMS, Inc.) were rendered diabetic with a single dose of streptozotocin (STZ, 50 mg/kg body weight, i.p.). Once rats became hyperglycemic (>350 mg/dl plasma glucose, usually 3-4 days post STZ injection), they were divided into two groups, with and without treatment with the GHRH antagonist MIA-602 ([…], s.c.) administered three times a week for 14 weeks after establishment of diabetes. Untreated animals received vehicle alone with the same regimen. Upon completion of the 14 weeks period, animals were placed in metabolic cages for 3 days for adaptation, allowing them free movement, water and food intake. During the entire experiment, rats were fed regular rat chow (Teklad Diet, Madison, Wis.) and received water ad libitum. On the third day in the metabolic cages, food and water intake was monitored for a period of 24 hours. 24-hour urine specimens were also collected, centrifuged at 400×g for 5 minutes for particulate removal, aliquoted and stored at −80° C. […]
# (§4) The entire small intestine was removed and its length was measured from the pylorus to the ileocecal junction. […] Proteins were detected with the following antibodies: GHRH receptor (Abcam), GLP-1 receptor (Santa Cruz Inc), α-sma (Sigma-Aldrich), or β-actin (Sigma-Aldrich). Data obtained from Western blots were processed by ImageJ quantification software.
# [4] = tested on: Rat small intestinal epithelial cells (IEC-6); experiment: ApoB-48 lipoprotein secretion by cultured intestinal epithelial cells challenged with oleic acid; type: cell-based
# Description: Cell culture. Rat small intestinal epithelial cells (IEC-6, ATCC® CRL-1592™) were grown in 6-well plates in DMEM medium supplemented with 10% fetal bovine serum (heat inactivated FBS, Gibco/Invitrogen), 1 mM sodium pyruvate, 2 mM L-alanyl-L-glutamine (GLUTAMAX I), 5 μg/ml insulin (Sigma-Aldrich), 100 U/ml penicillin and 100 μg/ml streptomycin at 37° C. in a 5% CO2 atmosphere. For all experiments, cells up to passage 6 were used for all experiments.
# Peptide Analogs Preparation. GHRH agonist JI-34, and GHRH antagonist MIA-602 were synthesized in the laboratory of A.V.S. (23, 24) and dissolved initially in DMSO before dilution with incubation medium. The final concentration of DMSO in the medium never exceeded 0.1% v/v.
# Assessment of ApoB-48 lipoprotein secretion by cultured intestinal epithelial cells. Upon confluence, cells were washed twice with serum-free DMEM medium, upon which fresh serum-free medium, supplemented with or without 5 μg/ml insulin was added. After 2 hrs of equilibration, cells were pre-treated for 1 hour with the GHRH receptor agonist JI-34 (1 μM, dissolved in DMSO), while control cells received vehicle alone, followed by addition of the GLP-1 receptor agonist (Exendin-4, 10 nM, Sigma-Aldrich). After 3 hrs, cells were treated with 0.5 mM oleic acid (OA) complexed to BSA (Sigma-Aldrich) for 3 hrs, to allow for lipid loading into ApoB-48 lipoproteins. Additional cells were pre-incubated or not for 1 h with the GLP-1 receptor antagonist Exendin 9-39 (100 nM, Sigma-Aldrich), or the GHRH antagonist MIA-602 (1 μM, dissolved in DMSO). Upon completion of treatment, medium was collected, centrifuged at 1,000×g for 3 minutes, and saved at −80° C. for further analysis.
# as §2
# [5] = tested on: GHRH receptor; experiment: Western blot of GHRH receptor expression in jejunum-ileum of T1D rats; type: in vivo, rat; details: diabetic rats, MIA-602 25 μg/kg s.c. three times a week for fourteen weeks, vs vehicle diabetic
# Description: as §1, §4
# T1D was induced in Wistar rats (male, 320-350 g) with intraperitoneal injection of a single dose of STZ (50 mg/kg body weight). […] The entire small intestine was removed from rats, and its length was measured from the pylorus to the ileocecal junction. […]
# [6] = tested on: Dipeptidyl-Peptidase 4 (DPP4); experiment: Plasma DPP4 activity in T1D rats (ELISA kit); type: in vivo, rat; details: non-fasting state, MIA-602 treatment, FIG. 6
# Description: Treatment with MIA-602 blunted this effect. DPP4 activity values were measured in plasma obtained from rats in the non-fasting state, by the use of a commercial ELISA kit (MyBioSource).
# as §3, with “C. Animals were then euthanized in the morning around 10 am in a fed state, under deep anesthesia with isoflurane, by exsanguination, followed by removal of vital organs.” for “C.”
# [7] = tested on: thoracic aortas of T1D rats; experiment: Vasodilation of thoracic aortic rings from T1D rats (acetylcholine, sodium nitroprusside); type: in vivo, rat; details: three groups of animals compared, FIG. 5E
# Description: FIG. 5A is a graph showing the measurement of proteinuria in urine from control, T1D and MIA-602/T1D rats, expressed as the albumin/creatinine ratio (n=5 per group). FIG. 5B: Upper panel: representative immunoblot of α-smooth muscle actin (α-sma) expression (a marker of fibroblast activation and renal fibrosis) in homogenates of kidney cortex.
# Therefore, MCP-1 levels in the serum were analyzed. […] Both dyslipidemia and increased MCP-1 plasma levels represent risk factors for vascular endothelial dysfunction. […] Responses to the endothelial-independent vasodilator sodium nitroprusside (SNP) were similar amongst the three groups of animals (FIG. 5E).
# [8] = tested on: lung microvascular endothelial cells; details: reference (24); cited from earlier work
substance,measurement,setting,value
Phac-Ada-Ty^1-D-Arg^2-Asp^3-Ala^4-Ile^5-Phe(F)5^6-Thr^7-Ala^8-Har^9-Tyr(me)^10-His^11-Orn^12-Val^13-Leu^14-Abu^15-Glu^16-Leu^17-Ser^18-Ala^19-His^20-Orn^21-Leu^22-Leu^23-Glu^24-Asp^25-Ile^26-Nle^27-D-Arg^28-Har^29-NH2 [MIA-602],Proteinuria (albumin/creatinine ratio),[1]; FIG. 5A,reduced
same,α-sma expression in kidney cortex,"[1]; Western blot, FIG. 5B",reduced
same,Plasma levels of apolipoprotein B-48 (ApoB-48),"[2]; T1D rats treated with MIA-602, FIG. 2D",blunted
same,Plasma levels of GIP,"[2]; T1D rats treated with MIA-602, not significant vs vehicle-treated diabetic (85.7±37.5)",46.7 ± 9.6 pg/mL
same,Lipemic plasma (visual),"[2]; T1D rats treated with MIA-602 vs vehicle, FIG. 2A",significant reduction
same,Total cholesterol levels in plasma,"[2]; T1D rats treated with MIA-602 vs vehicle-treated STZ diabetic animals, FIG. 2B",lower
same,VLDL/LDL-cholesterol in plasma,"[2]; T1D rats treated with MIA-602 vs vehicle-treated STZ diabetic animals, FIG. 2C",lower
same,Plasma glucagon,"[2]; T1D rats, MIA-602 25 μg/kg s.c. three times a week for 14 weeks, p < 0.02 vs Diabetes",55.9 ± 34.3^c pg/ml
same,Plasma GLP-1,"[2]; T1D rats, MIA-602 25 μg/kg s.c. three times a week for 14 weeks, p < 0.05 vs Diabetes",48.7 ± 25.2^e pg/ml
same,MCP-1 serum levels,"[2]; T1D rats, MIA-602 treatment, FIG. 5C",reduced
same,Plasma triglyceride levels,"[2]; T1D rats, MIA-602 treatment, p<0.01 vs. STZ (89.3±4.2), n=6 per group",82.3 ± 2.8 mg/dL
same,Plasma glucose,"[2]; T1D rats, non-fasting, MIA-602 25 μg/kg s.c. three times a week for 14 weeks, no insulin",603 ± 137.4^b mg/dl
same,GLP-1 receptor expression in distal small intestine and liver,[3],unaffected
same,ApoB-48 released into medium,"[4]; oleic acid (0.5 mM)-treated IEC, no insulin, agent alone at 1 μM, no GLP-1 agonist, oleic acid alone 6.67±0.26",3.43 ± 0.15 µg/mL
same,ApoB-48 released into medium,"[4]; oleic acid-treated IEC, MIA-602 (1 μM) in the presence of JI-34 and exendin-4",4.47 ± 0.46 µg/mL
same,Blunting of GHRH receptor expression in jejunum-ileum (Western blot densitometry),[5],approximately 5 fold
same,Plasma Dipeptidyl-Peptidase 4 (DPP4) activity,[6],reduced
same,Responses to the endothelial-independent vasodilator sodium nitroprusside (SNP),[7],similar
same,Barrier function,[8],slightly decreased
exendin 9-39,ApoB-48 released into medium,"[4]; oleic acid-treated IEC, exendin 9-39 (100 nM) together with MIA-602 (1 μM), MIA-602 alone 3.43±0.15",7.56 ± 0.53 µg/mL
same,ApoB-48 released into medium,"[4]; oleic acid-treated IEC, pretreatment 100 nM, then exendin-4 (10 nM), exendin-4 alone 4.44±0.36",8.78 ± 0.34 µg/mL
exendin-4: GLP-1 receptor agonist (Sigma-Aldrich),ApoB-48 released into medium,"[4]; oleic acid (0.5 mM)-treated IEC, no insulin, agent alone at 10 nM, oleic acid alone 6.67±0.26, medium alone 3.48±0.98",4.44 ± 0.36 µg/mL
